Measurements as given in article PMC7654512 (Bioorganic & medicinal chemistry letters, 2019).

Assays:
[1] = Hydrolytic stability of L-Dopa phosphoramidate prodrugs; assay type: physicochemical; settings: for hydrolytic stability relative to 1b (in words): 37 °C, 31P NMR, pH not stated at the place
[2] = L-Dopa alone, systemic circulation; cited from earlier work

Structure (SMILES): CC(=O)N[C@H](C(=O)[O-])[C@@H](C)OP(=O)([O-])N[C@@H](Cc1ccc(O)c(O)c1)C(=O)[O-].[K+].[K+].[K+] [1a]
- hydrolytic stability relative to 1b (in words) [1]: considerably less stable than the serine analog 1b

Structure (SMILES): CC(=O)N[C@@H](COP(=O)([O-])N[C@@H](Cc1ccc(O)c(O)c1)C(=O)[O-])C(=O)[O-].[K+].[K+].[K+] [1b]
- half-life ([1]; buffer, pH 7.4, half-life (t1/2) of hydrolysis, pH 7.4, 37 °C, 31P NMR over 16 h, internal standard TPPO, first-order kinetics): ~10 h

Structure (SMILES): O=C([O-])CCOP(=O)([O-])N[C@@H](Cc1ccc(O)c(O)c1)C(=O)[O-].[K+].[K+].[K+] [1c]
- hydrolytic stability relative to 1b (in words) [1]: unstable compared to 1b

Structure (SMILES): CC(=O)NCCOP(=O)([O-])N[C@@H](Cc1ccc(O)c(O)c1)C(=O)[O-].[K+].[K+] [1e]
- hydrolytic stability (in words) ([1]; pH 7.4, 37 °C, 31P NMR over 16 h): stable

Structure (SMILES): N[C@@H](Cc1ccc(O)c(O)c1)C(=O)O [L-Dopa, Levodopa]
- circulating half-life [2]: approximately 1 h
